Assay results reported in PubChem BioAssay (NCI).
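Five compound concentrations were applied to cells in 96-well plates for 48 hours; endpoints were derived by simple linear interpolation of the resulting dose-response curve. Definition used: TGI = concentration required for complete inhibition of growth.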

Columns and labels:
Assay in all cases: NCI-60 cell line screen, 48 h
786-0 renal = test system: 786-0 renal
A498 renal = test system: A498 renal
A549 NSCLC = test system: A549 NSCLC
ACHN renal = test system: ACHN renal
BT-549 breast = test system: BT-549 breast
CAKI-1 renal = test system: CAKI-1 renal
COLO 205 colon = test system: COLO 205 colon
DU-145 prostate = test system: DU-145 prostate
EKVX NSCLC = test system: EKVX NSCLC
HCC-2998 colon = test system: HCC-2998 colon
HCT-116 colon = test system: HCT-116 colon
HCT-15 colon = test system: HCT-15 colon
HL-60(TB) leukemia = test system: HL-60(TB) leukemia
HOP-62 NSCLC = test system: HOP-62 NSCLC
HOP-92 NSCLC = test system: HOP-92 NSCLC
HS 578T breast = test system: HS 578T breast
HT29 colon = test system: HT29 colon
IGROV1 ovarian = test system: IGROV1 ovarian
K-562 leukemia = test system: K-562 leukemia
KM12 colon = test system: KM12 colon
LOX IMVI melanoma = test system: LOX IMVI melanoma
M14 melanoma = test system: M14 melanoma
MALME-3M melanoma = test system: MALME-3M melanoma
MCF7 breast = test system: MCF7 breast
MDA-MB-231 breast = test system: MDA-MB-231 breast
MDA-MB-435 = test system: MDA-MB-435
MDA-N = test system: MDA-N
MOLT-4 leukemia = test system: MOLT-4 leukemia
NCI-H226 lung = test system: NCI-H226 lung
NCI-H23 lung = test system: NCI-H23 lung
NCI-H460 lung = test system: NCI-H460 lung
NCI-H522 lung = test system: NCI-H522 lung
NCI/ADR-RES ovarian = test system: NCI/ADR-RES ovarian
OVCAR-3 ovarian = test system: OVCAR-3 ovarian
OVCAR-4 ovarian = test system: OVCAR-4 ovarian
OVCAR-5 ovarian = test system: OVCAR-5 ovarian
OVCAR-8 ovarian = test system: OVCAR-8 ovarian
PC-3 prostate = test system: PC-3 prostate
RPMI-8226 leukemia = test system: RPMI-8226 leukemia
RXF 393 renal = test system: RXF 393 renal
SF-268 CNS = test system: SF-268 CNS
SF-295 CNS = test system: SF-295 CNS
SF-539 CNS = test system: SF-539 CNS
SK-MEL-2 melanoma = test system: SK-MEL-2 melanoma
SK-MEL-28 melanoma = test system: SK-MEL-28 melanoma
SK-MEL-5 melanoma = test system: SK-MEL-5 melanoma
SK-OV-3 ovarian = test system: SK-OV-3 ovarian
SN12C renal = test system: SN12C renal
SNB-19 CNS = test system: SNB-19 CNS
SNB-75 CNS = test system: SNB-75 CNS
SR leukemia = test system: SR leukemia
SW-620 colon = test system: SW-620 colon
T-47D breast = test system: T-47D breast
TK-10 renal = test system: TK-10 renal
U251 CNS = test system: U251 CNS
UACC-257 melanoma = test system: UACC-257 melanoma
UACC-62 melanoma = test system: UACC-62 melanoma
UO-31 renal = test system: UO-31 renal
CCRF-CEM leukemia = test system: CCRF-CEM leukemia

## COc1cc(/C=N/c2nc3cc4sc(/N=C/c5cc(OC)c(OC)c(OC)c5)nc4cc3s2)cc(OC)c1OC
786-0 renal
  TGI: > 100 µM
A498 renal
  TGI: > 100 µM
A549 NSCLC
  TGI: > 100 µM
ACHN renal
  TGI: > 100 µM
BT-549 breast
  TGI: > 100 µM
CAKI-1 renal
  TGI: > 100 µM
COLO 205 colon
  TGI: > 100 µM
DU-145 prostate
  TGI: > 100 µM
EKVX NSCLC
  TGI: > 100 µM
HCC-2998 colon
  TGI: > 100 µM
HCT-116 colon
  TGI: > 100 µM
HCT-15 colon
  TGI: > 100 µM
HL-60(TB) leukemia
  TGI: > 100 µM
HOP-62 NSCLC
  TGI: > 100 µM
HOP-92 NSCLC
  TGI: > 100 µM
HS 578T breast
  TGI: > 100 µM
HT29 colon
  TGI: > 100 µM
IGROV1 ovarian
  TGI: > 100 µM
K-562 leukemia
  TGI: > 100 µM
KM12 colon
  TGI: > 100 µM
LOX IMVI melanoma
  TGI: > 100 µM
M14 melanoma
  TGI: > 100 µM
MALME-3M melanoma
  TGI: > 100 µM
MCF7 breast
  TGI: > 100 µM
MDA-MB-231 breast
  TGI: > 100 µM
MDA-MB-435
  TGI: > 100 µM
MDA-N
  TGI: 81.7 µM
MOLT-4 leukemia
  TGI: > 100 µM
NCI-H226 lung
  TGI: > 100 µM
NCI-H23 lung
  TGI: > 100 µM
NCI-H460 lung
  TGI: > 100 µM
NCI-H522 lung
  TGI: > 100 µM
NCI/ADR-RES ovarian
  TGI: > 100 µM
OVCAR-3 ovarian
  TGI: > 100 µM
OVCAR-4 ovarian
  TGI: > 100 µM
OVCAR-5 ovarian
  TGI: > 100 µM
OVCAR-8 ovarian
  TGI: > 100 µM
PC-3 prostate
  TGI: > 100 µM
RPMI-8226 leukemia
  TGI: > 100 µM
RXF 393 renal
  TGI: > 100 µM
SF-268 CNS
  TGI: > 100 µM
SF-295 CNS
  TGI: > 100 µM
SF-539 CNS
  TGI: 40.8 µM
SK-MEL-2 melanoma
  TGI: > 100 µM
SK-MEL-28 melanoma
  TGI: 39.1 µM
SK-MEL-5 melanoma
  TGI: > 100 µM
SK-OV-3 ovarian
  TGI: > 100 µM
SN12C renal
  TGI: > 100 µM
SNB-19 CNS
  TGI: > 100 µM
SNB-75 CNS
  TGI: > 100 µM
SR leukemia
  TGI: > 100 µM
SW-620 colon
  TGI: > 100 µM
T-47D breast
  TGI: > 100 µM
TK-10 renal
  TGI: > 100 µM
U251 CNS
  TGI: > 100 µM
UACC-257 melanoma
  TGI: > 100 µM
UACC-62 melanoma
  TGI: > 100 µM
UO-31 renal
  TGI: > 100 µM

## O/N=C(/CC(O)(C(F)(F)F)C(F)(F)F)c1ccccc1
786-0 renal
  TGI: > 10 µM
A498 renal
  TGI: > 10 µM
A549 NSCLC
  TGI: > 10 µM
ACHN renal
  TGI: > 10 µM
BT-549 breast
  TGI: > 10 µM
CAKI-1 renal
  TGI: > 10 µM
CCRF-CEM leukemia
  TGI: > 10 µM
COLO 205 colon
  TGI: > 10 µM
DU-145 prostate
  TGI: > 10 µM
EKVX NSCLC
  TGI: > 10 µM
HCC-2998 colon
  TGI: > 10 µM
HCT-116 colon
  TGI: > 10 µM
HCT-15 colon
  TGI: > 10 µM
HL-60(TB) leukemia
  TGI: > 10 µM
HOP-62 NSCLC
  TGI: > 10 µM
HOP-92 NSCLC
  TGI: > 10 µM
HS 578T breast
  TGI: > 10 µM
HT29 colon
  TGI: > 10 µM
IGROV1 ovarian
  TGI: > 10 µM
K-562 leukemia
  TGI: > 10 µM
KM12 colon
  TGI: > 10 µM
LOX IMVI melanoma
  TGI: > 10 µM
M14 melanoma
  TGI: > 10 µM
MALME-3M melanoma
  TGI: > 10 µM
MCF7 breast
  TGI: > 10 µM
MDA-MB-231 breast
  TGI: > 10 µM
MDA-MB-435
  TGI: > 10 µM
MDA-N
  TGI: > 10 µM
MOLT-4 leukemia
  TGI: > 10 µM
NCI-H226 lung
  TGI: > 10 µM
NCI-H23 lung
  TGI: > 10 µM
NCI-H460 lung
  TGI: > 10 µM
NCI-H522 lung
  TGI: > 10 µM
NCI/ADR-RES ovarian
  TGI: > 10 µM
OVCAR-3 ovarian
  TGI: > 10 µM
OVCAR-4 ovarian
  TGI: > 10 µM
OVCAR-5 ovarian
  TGI: > 10 µM
OVCAR-8 ovarian
  TGI: > 10 µM
PC-3 prostate
  TGI: > 10 µM
RPMI-8226 leukemia
  TGI: > 10 µM
RXF 393 renal
  TGI: > 10 µM
SF-268 CNS
  TGI: > 10 µM
SF-295 CNS
  TGI: > 10 µM
SF-539 CNS
  TGI: > 10 µM
SK-MEL-2 melanoma
  TGI: > 10 µM
SK-MEL-28 melanoma
  TGI: > 10 µM
SK-MEL-5 melanoma
  TGI: > 10 µM
SK-OV-3 ovarian
  TGI: > 10 µM
SN12C renal
  TGI: > 10 µM
SNB-19 CNS
  TGI: > 10 µM
SNB-75 CNS
  TGI: > 10 µM
SR leukemia
  TGI: > 10 µM
SW-620 colon
  TGI: > 10 µM
T-47D breast
  TGI: > 10 µM
TK-10 renal
  TGI: > 10 µM
U251 CNS
  TGI: > 10 µM
UACC-257 melanoma
  TGI: > 10 µM
UACC-62 melanoma
  TGI: > 10 µM
